From article PMC6066355, “Probing the binding site of novel selective positive allosteric modulators at the M1 muscarinic acetylcholine receptor” (Biochemical Pharmacology, 2018)
Numbering of substitutions follows the chain as printed.

Tests used:
Assay in all cases: IP-One (IP1) accumulation assay, FlpIn CHO cells
Assay type in all cases: cell-based
F77^2.56I M1 mAChR = biological target: T1, F77^2.56I M1 mAChR (Homo sapiens, UniProt P11229, F77I); conditions: for LogτB (logarithm of functional efficacy of the modulator): corrected for receptor expression levels relative to WT; for τB (functional efficacy of the modulator, antilog in brackets): corrected for receptor expression relative to WT; for Logαβ (logarithm of functional cooperativity between ACh and modulator): pKB constrained to Table 1, β constrained to 1
T1 construct: expressed in transfected cells
T1 sequence (P11229 1-460 F77I): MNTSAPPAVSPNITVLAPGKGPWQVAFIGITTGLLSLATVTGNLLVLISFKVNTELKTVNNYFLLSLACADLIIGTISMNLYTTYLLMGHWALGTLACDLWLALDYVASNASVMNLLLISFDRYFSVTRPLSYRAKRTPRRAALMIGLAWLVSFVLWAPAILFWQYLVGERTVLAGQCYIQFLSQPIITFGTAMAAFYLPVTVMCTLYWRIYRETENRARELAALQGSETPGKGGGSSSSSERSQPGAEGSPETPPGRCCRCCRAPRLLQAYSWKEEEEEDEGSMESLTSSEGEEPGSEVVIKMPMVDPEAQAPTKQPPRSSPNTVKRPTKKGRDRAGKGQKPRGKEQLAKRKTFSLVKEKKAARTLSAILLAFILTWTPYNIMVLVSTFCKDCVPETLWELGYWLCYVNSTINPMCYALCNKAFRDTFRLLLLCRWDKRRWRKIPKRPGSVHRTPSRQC
Method: (§1) The IP-One assay kit (Cisbio) was used for the direct quantitative measurement of myo-Inositol 1 phosphate (IP1). Cells were seeded at 25,000 per well into 96-well transparent cell culture plates and incubated overnight at 37 °C. […] Cells were then lysed with IP1 lysis buffer (50 mM HEPES pH 7.0, 15 mM KF, 1.5% V/V Triton-X-100, 3% V/V FBS, 0.2% W/V BSA), and IP1 levels were measured by incubation of cell lysates with FRET reagents (the cryptate-labeled anti-IP1 antibody and the d2-labeled IP1 analogue) for 1 h at 37 °C. […] Signals were expressed as the FRET ratio: F = (fluorescence665 nm/fluorescence590 nm) × 10^4, and normalized to the response to maximal ACh concentration (100 µM).
(§2) (Eq. (2)) was used:(2) Y=Basal+Em-Basal/1+KA+A/τA where Em is the maximal possible system response and Basal is the response in the absence of agonist. [A] denotes the concentration of ligand, and KA represents its equilibrium dissociation constants. τ denotes the intrinsic efficacy of the ligand, which incorporates the total receptor density and the efficiency of stimulus-response coupling.
(§3) Functional interaction studies between orthosteric agonists and allosteric modulators in IP1 assays were analysed using the following operational model of allosterism and agonism (Eq. (3)):(3) E=Basal+Em-BasalAKB+αβB+τBBEC50/EC50KB+B+AKB+αβB+τBBEC50 where Em is the maximal possible system response, and Basal is the response in the absence of agonist. KB is the equilibrium dissociation constant of allosteric ligand, and EC50 is the concentration of orthosteric agonist required to achieve half maximal response. [A] and [B] denote concentrations of orthosteric and allosteric ligands, respectively. α and β denote allosteric effects on orthosteric ligand binding affinity and efficacy, respectively, and τB denotes the efficacy of allosteric ligand. This model assumes that ACh is a full agonist at the receptor in both the absence/presence of modulator and/or there is no efficacy modulation (i.e., β = 1).

W400^7.35A M1 mAChR = biological target: T2, W400^7.35A M1 mAChR (Homo sapiens, UniProt P11229, W400A)
T2 construct: expressed in transfected cells
T2 sequence (P11229 1-460 W400A): T1 sequence (P11229 1-460 F77I) with I77F, W400A
Method: as §1, §2, §3

Y179^ECL2A M1 mAChR = biological target: T3, Y179^ECL2A M1 mAChR (Homo sapiens, UniProt P11229, Y179A)
T3 construct: expressed in transfected cells
T3 sequence (P11229 1-460 Y179A): T1 sequence (P11229 1-460 F77I) with I77F, Y179A
Method: as §1, §2, §3

Y82^2.61A M1 mAChR = biological target: T4, Y82^2.61A M1 mAChR (Homo sapiens, UniProt P11229, Y82A); conditions: for LogτB (logarithm of functional efficacy of the modulator): corrected for receptor expression levels relative to WT; for τB (functional efficacy of the modulator, antilog in brackets): corrected for receptor expression relative to WT; for Logαβ (logarithm of functional cooperativity between ACh and modulator): pKB constrained to Table 1, β constrained to 1
T4 construct: expressed in transfected cells
T4 sequence (P11229 1-460 Y82A): T1 sequence (P11229 1-460 F77I) with I77F, Y82A
Method: as §1, §2, §3

SMILES | αβ (functional cooperativity with ACh, antilog in brackets) (F77^2.56I M1 mAChR) | LogτB (logarithm of functional efficacy of the modulator) (F77^2.56I M1 mAChR) | τB (functional efficacy of the modulator, antilog in brackets) (F77^2.56I M1 mAChR) | Logαβ (logarithm of functional cooperativity between ACh and modulator) (F77^2.56I M1 mAChR) | Modulation of ACh-stimulated IP1 accumulation (W400^7.35A M1 mAChR) | Modulation of ACh-stimulated IP1 accumulation (Y179^ECL2A M1 mAChR) | αβ (functional cooperativity with ACh, antilog in brackets) (Y82^2.61A M1 mAChR) | LogτB (logarithm of functional efficacy of the modulator) (Y82^2.61A M1 mAChR) | τB (functional efficacy of the modulator, antilog in brackets) (Y82^2.61A M1 mAChR) | Logαβ (logarithm of functional cooperativity between ACh and modulator) (Y82^2.61A M1 mAChR)
Cn1cc(-c2ccc(COc3ccccc3-c3cc(=O)n(C4CCCCC4O)cn3)cc2)cn1 (stereo not drawn) [MIPS1780, 3-(2-hydroxycyclohexyl)-6-(2-((4-(1-methyl-1H-pyrazol-4-yl)-benzyl)oxy)phenyl)pyrimidin-4(3H)-one] | 63 | 1.52 ± 0.06 | 33 | 1.80 ± 0.15 | abolished | abolished | 91 | 1.85 ± 0.12 | 71 | 1.96 ± 0.14
Cc1cnc(C(=O)N[C@H]2CCOC[C@@H]2O)cc1Cc1ccc(-c2cscn2)cc1 [PF-06767832, N-((3R,4S)-3-hydroxytetrahydro-2H-pyran-4-yl)-5-methyl-4-(4-(thiazol-4-yl)benzyl)pyridine-2-carboxamide] | 112 | 1.51 ± 0.07 | 32 | 2.05 ± 0.13 | abolished | abolished | 46 | 0.95 ± 0.12 | 9 | 1.66 ± 0.12
Cn1cc(-c2ccc(Cn3cc(C(=O)N[C@H]4CCCC[C@@H]4O)c4c(F)cc(F)cc43)cn2)cn1 [VU6004256, 4,6-difluoro-N-(1S,2S)-2-hydroxycyclohexyl-1-((6-(1-methyl-1H-pyrazol-4-yl)pyridine-3-yl)methyl)-1H-indole-3-carboxamide] | 51 | 1.43 ± 0.06 | 27 | 1.71 ± 0.15 | abolished | abolished | 19 | 0.50 ± 0.10 | 3 | 1.29 ± 0.10
